Data taken from PubChem BioAssay AID179 (DTP/NCI, 2004).
The source made the active and inactive calls.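 The calls were made as follows: active = compounds giving half or more protection of infected cells from virus-caused growth loss, again on retest; inactive = the rest.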

Tested on: CEM cells HIV-1 protection, formazan growth assay
Assay: NCI AIDS Antiviral Assay
Conditions: for IC50: measured here: growth of uninfected CEM cells
How it was run: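 Steps: treat uninfected and HIV-1-infected human CEM cells at five drug levels; quantify growth by soluble formazan; retest any compound reaching 50% protection; classify actives from the retest.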

SMILES | outcome | EC50 [µM] | IC50 [µM]
CC(=O)OC12CC(C(F)(F)F)(C(F)(F)F)OC1(OC(C)=O)CC(C(F)(F)F)(C(F)(F)F)O2 (centres undefined) | inactive | – | –
Cc1cn(C2CC3C(COCN3O)O2)c(=O)[nH]c1=O (centres undefined) | – | > 200 | 166
CC[C@@]1(OC(=O)CCC(=O)O)C(=O)OCc2c1cc1n(c2=O)Cc2cc3ccccc3nc2-1 | – | > 10 | 0.00708
Cc1ccc(OC(=O)N2C/C(=C\c3ccccc3)C(=O)/C(=C/c3ccccc3)C2)cc1 | inactive | – | –
Cc1ccc(S(=O)/C=C(\NC(=O)OCc2ccccc2)C(F)(F)F)cc1 (centres undefined) | inactive | – | –
O=C1OC(CC(=O)c2ccccc2Cl)C(Cl)=C1Cl (centres undefined) | – | > 117 | 69.2
CC1CCc2c(sc3ncnc(N/N=C/c4ccc(Cl)c(Cl)c4)c23)C1 (centres undefined) | – | > 25.7 | > 25.7
CCOC(=O)/C(C#N)=C/c1cccc(Br)c1 | inactive | – | –
COc1ccc(-c2csc3c2[N+]2(C)C=CC=C2C3N2CCCC2)cc1 (centres undefined) | – | > 200 | 8.51
CN1C(=S)N2CCCCCCCC2c2c1nc(CCl)[nH]c2=O (centres undefined) | – | > 200 | 6.92
Cc1c(C2(c3cc(C(C)C)c(O)c(CN(CC(=O)O)CC(=O)O)c3C)OS(=O)(=O)c3ccccc32)cc(C(C)C)c(O)c1CN(CC(=O)O)CC(=O)O | – | > 100 | > 100
CC12c3ccccc3C(c3ccccc31)C1C(=O)OC(=O)C12 (centres undefined) | – | > 135 | 21.4
CC(C)(C)C1=C(Br)C(O)(C(C)(C)C)OP1(=O)c1ccccc1 (centres undefined) | – | > 200 | 151
CCCCCN(CCCCC)/N=C/c1c2c(O)c3c(O)c(C)c4c(c3c1O)C(=O)C(C)(O/C=C/C(OC)C(C)C(OC(C)=O)C(C)C(O)C(C)C(O)C(C)/C=C/C=C(C)C(=O)N2)O4 (centres undefined) | – | > 200 | 8.32
N#CC1=C(N2CCCC2)NC(=O)CC1=O | – | > 200 | > 200
COc1ccc(C(CC(=O)O)CC(=O)O)cc1[N+](=O)[O-] | – | > 200 | > 200
Cc1cc(C)c(C2CNCc3cc4c(cc32)CNCC4c2c(C)cc(C)cc2C)c(C)c1 (centres undefined) | – | > 20 | 2.57
CC1OC(OC2C(OC(=O)[C@]34CCC(C)(C)CC3C3=CCC5[C@@]6(C)C[C@H](O)[C@H](OC7OC(CO)C(O)C(O)C7N)[C@@](C)(C(=O)O)C6CC[C@@]5(C)C3(C)CC4)OCC(O)C2O)C(O)C(O)C1OC1OCC(O)C(O)C1O (some centres undefined) | – | > 123 | > 123
COCN1C(=O)[C@@H]2CCCN2C(=O)c2cc(Cl)ccc21 | – | > 200 | > 200
Cc1ccc(C(=O)O)c(/C=C2\Cc3ccc(C)cc3C2=O)c1 | – | > 200 | 97.7
CCOP(=O)(OCC)C(C#N)Cc1ccco1 (centres undefined) | – | 41.7 | > 200
COc1ccc2c(c1)CCC1=C/C(=N\NC(N)=O)CCC12C (centres undefined) | – | > 63.1 | > 63.1

SMILES | outcome | EC50 [µM] | IC50 [µM]
C[n+]1c(-c2ccc(/C=N\Nc3nnc(S)n3/N=C/c3ccc(-c4cn5ccccc5[n+]4C)cc3)cc2)cn2ccccc21 | – | 66.1 | 67.6
N=c1oc2c(O)c(O)ccc2cc1C(N)=O | – | > 8.32 | > 8.32
CCOC(=O)/C(O)=C(/C(=O)OC)c1ccc(Cl)cc1 | – | > 427 | > 427
O=c1c2c([nH]c3nccn13)CCCC2 | – | > 200 | > 200
Sc1ccc2ccccc2c1CNC1CCCCC1 | – | > 200 | 28.2
Cn1cc2c(n1)c(N/N=C/c1ccccc1)nn1nnnc21 | – | > 89.1 | > 89.1
O=S(=O)(Cc1ccccc1)SCc1ccccc1 | – | > 79.4 | 6.31
CNS(=O)(=O)c1ccccc1C(C)(O)c1ccccc1 (centres undefined) | – | > 200 | > 200
COc1cc(C(=O)C(CO)Oc2ccccc2OC)ccc1O (centres undefined) | – | > 794 | 123
CCCCCCCC(=O)OCC1OC(n2cc(F)c(=O)[nH]c2=O)C(N)C(O)C1O (centres undefined) | – | > 309 | > 309
O=S1(=O)Oc2cccc3cccc1c23 | inactive | – | –
CC1=C(C(=O)NNC(=O)Cc2ccccc2)CC(C(=O)NNC(=O)Cc2ccccc2)=C(C)N1 | – | > 200 | 36.3
OC(Cc1ccc2ccccc2n1)(C(F)(F)Cl)C(F)(F)Cl | – | > 200 | 81.3
Cc1ccc2nc(NC(=S)NCCCCNC(=S)Nc3ccc4cc(C)ccc4n3)ccc2c1 | – | > 10.7 | > 10.7
COP1(=S)OCC2OC(n3cc(C)c(=O)[nH]c3=O)CC2O1 (centres undefined) | – | > 100 | > 100
Nc1ccc(CCN2CCN(c3cccc(C(F)(F)F)c3)CC2)cc1 | inactive | – | –
CCCC/C=C/Cc1[nH]c2ccccc2c(=O)c1C | – | > 28.2 | –
COc1ccc(-n2nnnc2C2(Nc3ccccc3)CCN(Cc3ccccc3)CC2)cc1 | – | > 200 | > 200
Nc1c(S(=O)(=O)O)cc2cc(S(=O)(=O)O)ccc2c1N=Nc1ccc(S(=O)(=O)c2ccc(N=Nc3c(N)c(S(=O)(=O)O)cc4cc(S(=O)(=O)O)ccc34)cc2)cc1 | – | > 64.6 | > 64.6
O=[N+]([O-])c1ccc(C=C2C=CN(CCO)C=C2)cc1 | – | > 200 | > 200
Cn1nc(C(N)=O)c(=O)[nH]c1=O | – | > 200 | > 200
